From article PMC9267128, “New 2-[(4-Amino-6-N-substituted-1,3,5-triazin-2-yl)methylthio]-N-(imidazolidin-2-ylidene)-4-chloro-5-methylbenzenesulfonamide Derivatives, Design, Synthesis and Anticancer Evaluation” (International Journal of Molecular Sciences, 2022)

Columns and labels:
MCF-7 (breast cancer) = test: MTT cell viability assay, MCF-7; format: cell-based, human; details: for IC50: Homo sapiens, MCF7, 72 h, MTT assay, 72 h of incubation; for Selectivity Index (SI) MCF-7: IC50 value toward HaCaT cells/IC50 value toward MCF-7
Method in brief: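 Cells in DMEM with 10% FBS, 3 × 10^3 per well, exposed to compounds at 1–100 µM for 72 h at 37 °C. MTT at 0.5 mg/mL for 2 h, formazan dissolved in DMSO and read at 550 nm. Mean ± SD of at least three independent experiments, each in triplicate.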

HeLa (cervical cancer) = test: MTT cell viability assay, HeLa; format: cell-based, human; details: for IC50: Homo sapiens, HeLa, MTT assay, 72 h of incubation; for Selectivity Index (SI) HeLa: IC50 value toward HaCaT cells/IC50 value toward HeLa
Method in brief: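 HCT-116 and HeLa cells in DMEM/10% FBS exposed 72 h to compounds over 1–100 µM. Viability by MTT (0.5 mg/mL, 2 h, 37 °C), formazan dissolved in DMSO and read at 550 nm; mean ± SD of at least three independent experiments.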

[1] = system: MCF7 (breast cancer cell line, ATCC, HTB-22); test: MTT assay, wild-type p53 breast cancer cells MCF-7 (Table 11); format: cell-based, human; details: Homo sapiens, MCF7; 72 h of incubation, wild-type p53, second determination
Protocol: (§1) Thus, the ability of the selected compounds to exert cytotoxic activity toward cell lines harboring mutant p53 was examined. Compounds displaying a high selectivity index (Table 6) were selected for the analysis of their activity toward ovarian and breast cancer cells with wild-type p53 (A2780, MCF-7) and mutant p53 (SKOV-3, T47D).
(§2) Cell viability was examined using the MTT [3-(4,5-dimethylthiazol-2-yl)-2,5-diphenyltetrazolium bromide] assay. Cells were seeded in 96-well plates at a density of 3 × 10^3 cells/well and treated for 72 h with the tested compounds in the concentration range of 1–100 µM. Then, MTT (0.5 mg/mL) was added to the medium and cells were further incubated for 2 h at 37 °C. In the next stage, cells were lysed with DMSO and the absorbance of the formazan solution was measured at 550 nm with a plate reader (1420 multilabel counter, Victor, Jügesheim, Germany). The experiment was performed in triplicate. Values are expressed as the mean ± SD of at least three independent experiments. Cisplatin was used as a positive control.
(§3) Compounds 48, 62, 134, 138 and 140 were further examined toward MCF7 (breast cancer cell line, ATCC, HTB-22), T47D (breast cancer cell line, DSMZ ACC 739), A2780 (ovarian carcinoma cell line, ECACC, 93112519), and SKOV3 (ovarian carcinoma cell line, ATCC, HTB-77) cells. Cells were grown in Dulbecco’s Modified Eagle Medium (DMEM) supplemented with 10% fetal bovine serum (Thermo Fisher Scientific).

MDM2-p53 interactions = test: Western blot of MDM2 and p53 protein levels in MCF-7 cells; format: cell-based, human; details: 4 µM and 10 µM, 24-h incubation
Protocol: Thus, the effects of the examined compounds on the inhibition of MDM2-p53 interactions were examined. MDM2 and p53 protein levels were determined with Western blot analysis after the treatment of MCF-7 cells with compounds selected for their high selectivity index (48, 62, 134, 138, and 140). Compounds were examined at different concentrations (4 µM and 10 µM) following a 24-h incubation (Figure 7).
Proteins were transferred to an Immobilon-P PVDF membrane (Merck Millipore, Burlington, MA, USA). The membranes were incubated for 1 h using 5% low-fat milk solution in 1× TBS (50 mM Tris-Cl, pH 7.5, 150 mM NaCl) as a blocking buffer and then overnight at 4 °C in the same blocking solution containing one of the following antibodies: anti-MDM2 (rabbit, Sigma-Aldrich AB-166, Burlington, MA, USA), anti-p53 (rabbit, Sigma-Aldrich S15) or α-tubulin (rabbit, 11H10, Cell Signaling, Danvers, MA, USA). After washing (3 × 10 min in TBS), membranes were incubated for 2 h in room temperature with the adequate HRP-conjugated secondary antibody: goat anti-rabbit IgG (1:5000, Abcam, Cambridge, UK; cat. 97051). Membranes were developed using an HRP detection kit WesternBright Quantum (Advansta, San Jose, CA, USA; cat. K-12042).

MCF-7 cells = test: Apoptosis analysis (Annexin V-PE/7-AAD flow cytometry) in MCF-7 cells; format: cell-based, human; details: MCF-7, 5, 10 and 25 µM, 72 h
Protocol: To confirm this, MCF-7 cells were treated with a concentration range of compounds 140 and 48 for 72 h. Flow cytometric analysis was performed with Annexin V-PE staining. […] The increase in apoptotic cells was mainly evident in the late apoptotic stage (upper right quadrant) (Figure 9).
(§4) Levels of apoptosis were measured by flow cytometry using the Annexin V-PE Apoptosis Detection Kit I (BD Biosciences, Belgium) according to the manufacturer’s instructions. Apoptosis was assessed after a 72 h treatment of MCF7 and T47D cells with compounds 48 and 140 in the concentrations of 5, 10 and 25 µM. Proceeding cell treatment, cells were collected, washed with PBS and stained with Annexin V-phycoerythrin (PE) and 7-amino-actinomycin (7-AAD) in Annexin V binding buffer for 15 min at RT in the dark. After staining, cells were diluted in Annexin V binding buffer and analyzed on a BD FACSCalibur flow cytometer (BD Biosciences). At total of 10^4 cells were analyzed from each sample and data were analyzed with Flowing software (version 2.5).

[2] = system: A2780 (ovarian carcinoma cell line); test: MTT assay, wild-type p53 ovarian cancer cells A2780; format: cell-based; details: Homo sapiens, A2780, 72 h of incubation
Protocol: as §1, §2, §3

[3] = system: T47D (breast cancer cell line); test: MTT assay, mutant p53 breast cancer cells T47D; format: cell-based; details: Homo sapiens, T47D, 72 h of incubation
Protocol: as §1, §2, §3

T47D cells = test: Apoptosis analysis (Annexin V-PE/7-AAD flow cytometry) in T47D cells; format: cell-based; details: T47D (mutant p53), 5, 10 and 25 µM, 72 h
Protocol: Since the examined compounds exerted cytotoxic activity toward cell lines harboring mutant p53, the ability of compounds 140 and 48 to induce apoptosis in T47D cells with mutant p53 was examined. […] Cell death was induced to a similar extent in cells harboring wild-type and mutant p53 (Figure 10).
as §4

SMILES	IC50 (MCF-7 (breast cancer)) [µM]	Selectivity Index (SI) MCF-7 (MCF-7 (breast cancer))	IC50 (HeLa (cervical cancer)) [µM]	Selectivity Index (SI) HeLa (HeLa (cervical cancer))	IC50 [1] [µM]	MDM2 and p53 protein levels (MDM2-p53 interactions)	apoptotic population of cells (Annexin V-PE) (MCF-7 cells)	IC50 [2] [µM]	IC50 [3] [µM]	apoptotic cells (Annexin V-PE) (T47D cells)
Cc1cc(S(=O)(=O)N=C2NCCN2Cc2ccccc2)c(SCc2nc(N)nc(N3CCc4ccccc43)n2)cc1Cl [Compound 48]	7 ± 0.2	4.7	25 ± 0.3	1.3	7.8 ± 0.1	no changes	concentration-dependent increase	4 ± 0.1	4.8 ± 0.1	concentration-dependent increase
Cc1cc(S(=O)(=O)N=C2NCCN2Cc2ccc(C(F)(F)F)cc2)c(SCc2nc(N)nc(N3CCN(Cc4ccccc4)CC3)n2)cc1Cl [Compound 140]	10 ± 0.2	2.2	8 ± 0.5	2.7	6.9 ± 0.1	no changes	concentration-dependent increase	4.5 ± 0.1	5.3 ± 0.1	concentration-dependent increase
